Where “and” joins values, the source holds several entries; their conditions need not be identical. Equal entries are not always repeated. Where two headings read alike, the source gives them in different places.
Assays:
Test in all cases: CDK inhibition assay (microfluidic LabChip, IC50 format)
CDK9-CYCLINT1 = biological target: T1, CDK9-CYCLINT1 (Homo sapiens, UniProt P50750); type: biochemical; conditions: read-out: CDK9 CyclinT1 IC50
T1 construct: purchased Carna

CDK6-CYCLIND3 = biological target: T2, CDK6-CYCLIND3 (Homo sapiens, UniProt Q00534); type: biochemical; conditions: read-out: CDK6 CyclinD3 IC50
T2 construct: purchased Carna

CDK7 CyclinH = CDK7 CyclinH (Homo sapiens, UniProt P50613); type: biochemical
CDK4-CYCLIND1 = CDK4-CYCLIND1 (Homo sapiens, UniProt P11802); conditions: a second value in parentheses for some compounds
CDK2-CYCLINA = biological target: T3, CDK2-CYCLINA (Homo sapiens, UniProt P24941); type: biochemical; conditions: read-out: CDK2 CyclinA IC50
T3 construct: purchased Millipore

[1] = CDK4 CyclinD1 IC50, Table 4b, lower part

T2 sequence (Q00534 whole entry): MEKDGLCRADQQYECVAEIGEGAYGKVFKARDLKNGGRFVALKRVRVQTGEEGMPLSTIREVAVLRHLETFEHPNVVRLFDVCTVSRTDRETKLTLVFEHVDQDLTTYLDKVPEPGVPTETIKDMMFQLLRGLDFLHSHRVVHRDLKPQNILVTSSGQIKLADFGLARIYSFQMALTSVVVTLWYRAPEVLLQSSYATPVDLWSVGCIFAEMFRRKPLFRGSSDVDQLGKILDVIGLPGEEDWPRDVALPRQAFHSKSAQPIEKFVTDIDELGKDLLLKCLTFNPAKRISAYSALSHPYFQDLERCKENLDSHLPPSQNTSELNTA
T2 sequence (P30281 whole entry partner): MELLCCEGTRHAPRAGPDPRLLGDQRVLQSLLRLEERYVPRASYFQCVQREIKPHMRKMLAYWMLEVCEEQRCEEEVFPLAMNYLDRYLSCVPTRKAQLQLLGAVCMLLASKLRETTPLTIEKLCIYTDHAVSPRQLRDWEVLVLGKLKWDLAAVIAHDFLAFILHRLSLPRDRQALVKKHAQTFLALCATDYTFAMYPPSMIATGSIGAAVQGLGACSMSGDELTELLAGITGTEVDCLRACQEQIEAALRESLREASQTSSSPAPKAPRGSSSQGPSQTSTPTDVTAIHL
Chain of CDK4-CYCLIND1 (P11802 whole entry): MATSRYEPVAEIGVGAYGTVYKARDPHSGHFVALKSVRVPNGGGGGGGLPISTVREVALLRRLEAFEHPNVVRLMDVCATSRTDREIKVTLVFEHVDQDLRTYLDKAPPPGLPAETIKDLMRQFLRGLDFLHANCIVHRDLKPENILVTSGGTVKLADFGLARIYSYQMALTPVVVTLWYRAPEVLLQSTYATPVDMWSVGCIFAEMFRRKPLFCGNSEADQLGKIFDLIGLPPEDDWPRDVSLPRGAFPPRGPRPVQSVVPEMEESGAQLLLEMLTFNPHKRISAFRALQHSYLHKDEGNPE
Chain of CDK4-CYCLIND1 (P24385 whole entry partner): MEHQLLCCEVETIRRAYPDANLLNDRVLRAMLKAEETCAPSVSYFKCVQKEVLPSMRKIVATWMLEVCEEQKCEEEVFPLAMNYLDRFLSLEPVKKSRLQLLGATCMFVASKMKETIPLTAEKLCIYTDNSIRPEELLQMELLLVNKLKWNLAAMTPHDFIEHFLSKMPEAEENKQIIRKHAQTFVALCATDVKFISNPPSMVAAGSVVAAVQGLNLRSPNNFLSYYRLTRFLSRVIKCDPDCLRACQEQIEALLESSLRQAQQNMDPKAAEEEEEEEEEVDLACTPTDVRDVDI
T1 sequence (P50750 whole entry): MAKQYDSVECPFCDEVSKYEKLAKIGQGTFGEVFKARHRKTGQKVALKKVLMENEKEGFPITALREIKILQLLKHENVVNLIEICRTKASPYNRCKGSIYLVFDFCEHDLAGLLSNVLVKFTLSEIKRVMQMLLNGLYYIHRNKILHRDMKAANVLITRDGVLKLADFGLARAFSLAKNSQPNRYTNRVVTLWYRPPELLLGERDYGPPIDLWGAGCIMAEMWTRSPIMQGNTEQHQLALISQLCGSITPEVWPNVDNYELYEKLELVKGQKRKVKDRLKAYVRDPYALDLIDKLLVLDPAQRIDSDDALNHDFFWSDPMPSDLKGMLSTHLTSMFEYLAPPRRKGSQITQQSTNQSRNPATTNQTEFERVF
T1 sequence (O60563 whole entry partner): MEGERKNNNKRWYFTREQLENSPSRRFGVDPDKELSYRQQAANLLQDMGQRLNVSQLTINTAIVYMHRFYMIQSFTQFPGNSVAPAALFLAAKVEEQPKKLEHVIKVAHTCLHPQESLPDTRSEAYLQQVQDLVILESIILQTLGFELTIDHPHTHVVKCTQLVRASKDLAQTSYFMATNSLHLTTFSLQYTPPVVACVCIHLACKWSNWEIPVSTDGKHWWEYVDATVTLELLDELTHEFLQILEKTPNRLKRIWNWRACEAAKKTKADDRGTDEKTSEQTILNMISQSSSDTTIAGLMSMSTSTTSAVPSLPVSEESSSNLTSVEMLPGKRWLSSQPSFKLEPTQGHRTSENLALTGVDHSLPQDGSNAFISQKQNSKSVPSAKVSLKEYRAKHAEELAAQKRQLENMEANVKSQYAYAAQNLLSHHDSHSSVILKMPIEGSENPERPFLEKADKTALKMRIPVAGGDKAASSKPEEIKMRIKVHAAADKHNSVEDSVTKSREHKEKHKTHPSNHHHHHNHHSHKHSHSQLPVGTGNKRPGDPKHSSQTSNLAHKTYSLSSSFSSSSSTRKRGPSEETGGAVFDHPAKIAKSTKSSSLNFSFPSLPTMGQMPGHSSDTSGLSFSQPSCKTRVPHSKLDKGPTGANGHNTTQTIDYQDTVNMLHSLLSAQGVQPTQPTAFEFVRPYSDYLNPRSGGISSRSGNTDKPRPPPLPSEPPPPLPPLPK
Chain of CDK7 CyclinH (P50613 whole entry): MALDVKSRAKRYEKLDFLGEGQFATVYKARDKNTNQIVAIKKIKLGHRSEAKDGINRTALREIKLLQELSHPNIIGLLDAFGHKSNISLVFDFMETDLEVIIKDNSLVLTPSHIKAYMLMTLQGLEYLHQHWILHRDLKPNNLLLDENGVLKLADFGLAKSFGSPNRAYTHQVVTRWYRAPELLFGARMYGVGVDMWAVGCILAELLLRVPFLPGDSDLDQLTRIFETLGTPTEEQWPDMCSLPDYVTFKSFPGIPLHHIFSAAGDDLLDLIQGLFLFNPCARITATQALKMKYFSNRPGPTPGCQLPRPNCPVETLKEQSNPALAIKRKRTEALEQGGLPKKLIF
Chain of CDK7 CyclinH (P51946 whole entry partner): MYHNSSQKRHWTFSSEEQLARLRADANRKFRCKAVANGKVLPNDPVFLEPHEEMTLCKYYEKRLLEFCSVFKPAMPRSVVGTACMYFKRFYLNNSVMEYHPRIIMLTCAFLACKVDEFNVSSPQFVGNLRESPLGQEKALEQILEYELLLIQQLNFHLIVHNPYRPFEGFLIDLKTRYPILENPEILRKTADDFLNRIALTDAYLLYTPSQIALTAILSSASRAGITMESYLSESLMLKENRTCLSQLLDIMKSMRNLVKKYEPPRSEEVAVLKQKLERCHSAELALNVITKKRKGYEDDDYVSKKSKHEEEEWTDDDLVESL
Chain of CDK7 CyclinH (P51948 whole entry partner): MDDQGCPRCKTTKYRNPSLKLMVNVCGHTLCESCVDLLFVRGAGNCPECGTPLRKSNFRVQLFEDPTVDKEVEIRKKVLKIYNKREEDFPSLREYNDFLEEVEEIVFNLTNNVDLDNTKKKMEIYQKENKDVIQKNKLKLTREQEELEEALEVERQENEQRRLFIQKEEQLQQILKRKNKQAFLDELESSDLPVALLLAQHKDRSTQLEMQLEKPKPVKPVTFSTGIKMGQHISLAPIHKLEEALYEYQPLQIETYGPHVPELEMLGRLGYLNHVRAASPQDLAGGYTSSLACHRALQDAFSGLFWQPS

IC50 (CDK9-CYCLINT1; Table 4a) [nM] | IC50 (CDK6-CYCLIND3; Table 4a) [nM] | IC50 (CDK7 CyclinH; Table 4a) [nM] | IC50 (CDK4-CYCLIND1; CDK4 CyclinD1 IC50, Table 4a) | IC50 (CDK2-CYCLINA; Table 4a) [nM] | IC50 (CDK9-CYCLINT1; Table 4b, lower part) [nM] | IC50 (CDK6-CYCLIND3; Table 4b, lower part) [nM] | IC50 (CDK7 CyclinH; Table 4b, lower part) [nM] | IC50 (CDK4-CYCLIND1; [1]) | IC50 (CDK2-CYCLINA; Table 4b, lower part) [nM] | Compound
271 | 3.78 | 26500 | 1.98 nM | 2840 |  |  |  |  |  | CC(C)N1CC2(CN(c3ccc(Nc4ncc5c(n4)N(C4CCCC4)C(=O)[C@]4(CCNC4=O)C5)nc3)C2)C1 [Example D171, (S)-8-cyclopentyl-2-((5-(6-isopropyl-2,6-diazaspiro[3.3]heptan-2-yl)pyridin-2-yl)amino)-5,8-dihydro-7H-spiro[pyrido[2,3-d]pyrimidine-6,3′-pyrrolidine]-2′,7-dione]
4.81 | 6.6 | 673 | 2.72 nM | 79.5 |  |  |  |  |  | O=C1NCC[C@@]12Cc1cnc(Nc3ccc(N4CC5(CNC5)C4)cc3)nc1N(C1CCCC1)C2=O [Example D172, (S)-2-((4-(2,6-diazaspiro[3.3]heptan-2-yl)phenyl)amino)-8-cyclopentyl-5,8-dihydro-7H-spiro[pyrido[2,3-d]pyrimidine-6,3′-pyrrolidine]-2′,7-dione]
5.74 | 11.6 | 682 | 5.37 nM | 110 |  |  |  |  |  | O=C1NCC[C@@]12Cc1cnc(Nc3ccc(N4CC5(CNC5)C4)c(F)c3)nc1N(C1CCCC1)C2=O [Example D173, (S)-8-cyclopentyl-2-((3-fluoro-4-(2,6-diazaspiro[3.3]heptan-2-yl)phenyl)amino)-5,8-dihydro-7H-spiro[pyrido[2,3-d]pyrimidine-6,3′-pyrrolidine]-2′,7-dione]
6.93 | 3.16 | 505 | 1.52 nM | 60.9 |  |  |  |  |  | CN(C)[C@H]1CCN(c2ccc(Nc3ncc4c(n3)N(C3CCCC3)C(=O)[C@]3(CCNC3=O)C4)cc2)C1 [Example D174, (S)-8-cyclopentyl-2-((4-((S)-3-(dimethylamino)pyrrolidin-1-yl)phenyl)amino)-5,8-dihydro-7H-spiro[pyrido[2,3-d]pyrimidine-6,3′-pyrrolidine]-2′,7-dione]
3.62 | 2.6 | 465 | 1.56 nM and 0.83 nM | 57.1 |  |  |  |  |  | CN(C)[C@@H]1CCN(c2ccc(Nc3ncc4c(n3)N(C3CCCC3)C(=O)[C@]3(CCNC3=O)C4)cn2)C1 [Example D175, (S)-8-cyclopentyl-2-((6-((R)-3-(dimethylamino)pyrrolidin-1-yl)pyridin-3-yl)amino)-5,8-dihydro-7H-spiro[pyrido[2,3-d]pyrimidine-6,3′-pyrrolidine]-2′,7-dione]
19.1 | 13.9 | 2940 | 4.72 nM | 50 |  |  |  |  |  | CN(C)[C@H]1CCN(C(=O)c2ccc(Nc3ncc4c(n3)N(C3CCCC3)C(=O)[C@]3(CCNC3=O)C4)cc2)C1 [Example D177, (S)-8-cyclopentyl-2-((4-((S)-3-(dimethylamino)pyrrolidine-1-carbonyl)phenyl)amino)-5,8-dihydro-7H-spiro[pyrido[2,3-d]pyrimidine-6,3′-pyrrolidine]-2′,7-dione]
2.84 | 4.35 | 266 | 1.79 nM | 98.7 |  |  |  |  |  | O=C1NCC[C@@]12Cc1cnc(Nc3ccc(OCCN4CCCC4)c(F)c3)nc1N(C1CCCC1)C2=O [Example D180, (S)-8-cyclopentyl-2-((3-fluoro-4-(2-(pyrrolidin-1-yl)ethoxy)phenyl)amino)-5,8-dihydro-7H-spiro[pyrido[2,3-d]pyrimidine-6,3′-pyrrolidine]-2′,7-dione]
 |  |  |  |  | 818 | 6.79 | 40900 | 4.3 nM | 5820 | O=C1NCC[C@@]12Cc1cnc(Nc3ccc(N4CCC(N5CCOCC5)CC4)cn3)nc1N(C1CCCC1)C2=O [Example D181, (S)-8-cyclopentyl-2-((5-(4-morpholinopiperidin-1-yl)pyridin-2-yl)amino)-5,8-dihydro-7H-spiro[pyrido[2,3-d]pyrimidine-6,3′-pyrrolidine]-2′,7-dione]
 |  |  |  |  | 16.2 | < 0.56 | 591 | < 0.56 nM | 115 | O=C1NCC[C@@]12Cc1cnc(Nc3ccc(N4CCC(N5CCOCC5)CC4)cc3)nc1N(C1CCCC1)C2=O [Example D182, (S)-8-cyclopentyl-2-((4-(4-morpholinopiperidin-1-yl)phenyl)amino)-5,8-dihydro-7H-spiro[pyrido[2,3-d]pyrimidine-6,3′-pyrrolidine]-2′,7-dione]
 |  |  |  |  | 76.8 | 66.2 | 2340 | 22.9 nM | 2430 | CN1CCN(c2ccc(Nc3ncc4c(n3)N(C35CC(C3)C5)C(=O)C3(CCNC3=O)C4)cc2F)CC1 (stereo not drawn) [Example D183, 8-(bicyclo[1.1.1]pentan-1-yl)-2-((3-fluoro-4-(4-methylpiperazin-1-yl)phenyl)amino)-5,8-dihydro-7H-spiro[pyrido[2,3-d]pyrimidine-6,3′-pyrrolidine]-2′,7-dione]
 |  |  |  |  | 46.8 | 43.5 | 1690 | 19.6 nM and 11.1 nM | 1400 | O=C1NCC[C@@]12Cc1cnc(Nc3ccc(N4CCNCC4)c(F)c3)nc1N(C13CC(C1)C3)C2=O [Example D184, (S)-8-(bicyclo[1.1.1]pentan-1-yl)-2-((3-fluoro-4-(piperazin-1-yl)phenyl)amino)-5,8-dihydro-7H-spiro[pyrido[2,3-d]pyrimidine-6,3′-pyrrolidine]-2′,7-dione]
 |  |  |  |  | 36.7 | 31.2 | 1170 | 15.6 nM | 1060 | CN1CCN(c2ccc(Nc3ncc4c(n3)N(C35CC(C3)C5)C(=O)[C@]3(CCNC3=O)C4)cc2F)CC1 [Example D185, (S)-8-(bicyclo[1.1.1]pentan-1-yl)-2-((3-fluoro-4-(4-methylpiperazin-1-yl)phenyl)amino)-5,8-dihydro-7H-spiro[pyrido[2,3-d]pyrimidine-6,3′-pyrrolidine]-2′,7-dione]
 |  |  |  |  | 61.5 | 38.7 | 2320 | 13.9 nM | 1490 | CN1CCN(c2ccc(Nc3ncc4c(n3)N(C35CC(C3)C5)C(=O)[C@]3(CCNC3=O)C4)cc2)CC1 [Example D186, (S)-8-(bicyclo[1.1.1]pentan-1-yl)-2-((4-(4-methylpiperazin-1-yl)phenyl)amino)-5,8-dihydro-7H-spiro[pyrido[2,3-d]pyrimidine-6,3′-pyrrolidine]-2′,7-dione]
 |  |  |  |  | 60.7 | 33.6 | 1680 | 14.5 nM | 1370 | CC(C)N1CCN(c2ccc(Nc3ncc4c(n3)N(C35CC(C3)C5)C(=O)[C@]3(CCNC3=O)C4)cc2)CC1 [Example D187, (S)-8-(bicyclo[1.1.1]pentan-1-yl)-2-((4-(4-isopropylpiperazin-1-yl)phenyl)amino)-5,8-dihydro-7H-spiro[pyrido[2,3-d]pyrimidine-6,3′-pyrrolidine]-2′,7-dione]
 |  |  |  |  | > 100000 | 21700 | > 100000 | 10600 nM | > 100000 | CN1CCN(c2ccc(Nc3ncc4c(n3)N(C35CC(C3)C5)C(=O)[C@]3(CCNC3=O)C4)nc2)CC1 [Example D188, (S)-8-(bicyclo[1.1.1]pentan-1-yl)-2-((5-(4-methylpiperazin-1-yl)pyridin-2-yl)amino)-5,8-dihydro-7H-spiro[pyrido[2,3-d]pyrimidine-6,3′-pyrrolidine]-2′,7-dione]
